From PMC10450872 (ACS Central Science, 2023)
Several values for one entry are separate records, joined by “and”; a condition that tells them apart may be missing. Identical values can stand only once.

Experiments:
hKOR (OPRK1) = target: T1, hKOR (OPRK1) (Homo sapiens, UniProt P41145); test: cell-based; conditions: for Emax: CHO, read-out: cAMP Emax
T1 construct: 3HA (triple haemagglutinin tag); expressed in transfected cells

hKOR [1] = target: T2, hKOR (Homo sapiens, UniProt P41145); test: cell-based; conditions: for Emax: read-out: βarrestin2 Emax; for EC50: βarrestin2 pEC50
T2 construct: β-galactosidase enzyme fragment for EFC (ProLink tag of the PathHunter system; name and presence on the receptor from own knowledge); host or cells: U2OS-β-arrestin2-EFC-hKOR (PathHunter) cells

hKOR [2] = target: T2, hKOR; format: cell-based
human MOR (OPRM1) = target: T3, human MOR (OPRM1) (Homo sapiens, UniProt P35372); format: cell-based
T3 construct: expressed in transfected cells

[3] = mean EC50 of inhibition of forskolin-stimulated cAMP accumulation via KOR
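Wherever Emax is given: 100% = maximum response to 10 µM U69,593.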

T2 sequence (P41145 whole entry, the tested form may be a part): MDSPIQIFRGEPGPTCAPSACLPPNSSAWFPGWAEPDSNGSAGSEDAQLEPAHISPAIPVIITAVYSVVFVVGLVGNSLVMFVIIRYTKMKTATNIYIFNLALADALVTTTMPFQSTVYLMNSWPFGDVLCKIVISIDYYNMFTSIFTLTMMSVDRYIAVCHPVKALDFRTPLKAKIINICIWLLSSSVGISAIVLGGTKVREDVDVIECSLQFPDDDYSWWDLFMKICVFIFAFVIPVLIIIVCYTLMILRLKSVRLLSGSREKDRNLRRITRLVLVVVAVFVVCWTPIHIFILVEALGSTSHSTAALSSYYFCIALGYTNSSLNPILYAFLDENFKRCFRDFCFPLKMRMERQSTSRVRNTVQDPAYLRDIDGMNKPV
T1 sequence (P41145 whole entry): as the sequence (P41145 whole entry, the tested form may be a part) above
T3 sequence (P35372 whole entry): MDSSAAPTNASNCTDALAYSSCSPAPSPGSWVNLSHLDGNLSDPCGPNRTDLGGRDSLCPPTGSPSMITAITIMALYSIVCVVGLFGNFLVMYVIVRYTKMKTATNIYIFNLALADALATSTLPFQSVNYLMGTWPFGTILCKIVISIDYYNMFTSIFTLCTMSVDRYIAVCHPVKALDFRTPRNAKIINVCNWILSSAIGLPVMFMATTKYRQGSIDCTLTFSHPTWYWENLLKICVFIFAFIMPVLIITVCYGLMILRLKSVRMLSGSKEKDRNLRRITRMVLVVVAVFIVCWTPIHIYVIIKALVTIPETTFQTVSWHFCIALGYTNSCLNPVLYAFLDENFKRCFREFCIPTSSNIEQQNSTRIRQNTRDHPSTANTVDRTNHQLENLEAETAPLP

| Compound | Emax (hKOR (OPRK1)) | EC50 (hKOR (OPRK1); cAMP pEC50) | EC50 (hKOR (OPRK1); [3]) | Emax (hKOR [1]) | EC50 (hKOR [1]) | Bias Factor (hKOR [2]) | ΔΔLogτ/KA (cAMP/βarr2) (hKOR [2]) | cAMP Emax (hKOR (OPRK1)) | βarrestin2 Emax (hKOR [1]) | increase of potency on replacement of the 3-furyl (hKOR (OPRK1)) | selectivity for KOR over MOR (human MOR (OPRM1)) |
| --- | --- | --- | --- | --- | --- | --- | --- | --- | --- | --- | --- |
| COC(=O)[C@@H]1C[C@H](OC(C)=O)C(=O)[C@@H]2[C@H]3CC=CC(=O)[C@@H]3CC[C@]21C [17a] | 96% | 10700 nM | > 10000 nM |  |  |  |  |  |  |  |  |
| COC(=O)[C@@H]1C[C@H](OC(C)=O)C(=O)[C@@H]2[C@H]3C[C@@H](c4cccc(O)c4)CC(=O)[C@@H]3CC[C@]21C [22a] | 97% | 309 nM |  | 81% | 5890 nM | 0.72 | 1.397 |  |  |  |  |
| COC(=O)[C@@H]1C[C@H](OC(C)=O)C(=O)[C@@H]2[C@H]3C[C@H](c4cccc(O)c4)CC(=O)[C@@H]3CC[C@]21C [22b] | 95% | 912 nM |  |  |  |  |  |  |  |  |  |
| COC(=O)[C@@H]1C[C@H](OC(C)=O)C(=O)[C@@H]2[C@H]3C[C@@H](c4ccccc4)CC(=O)[C@@H]3CC[C@]21C [24a] | 98% | 9.12 nM |  | 120% | 219 nM | 0.39 | 2.554 |  |  |  |  |
| COC(=O)[C@@H]1C[C@H](OC(C)=O)C(=O)[C@@H]2[C@H]3C[C@H](c4ccccc4)CC(=O)[C@@H]3CC[C@]21C [24b] | 100% | 63.1 nM |  | 109% | 891 nM | 0.32 | 3.153 |  |  |  |  |
| C#CC1(O)CC(c2ccccc2)CC2C1CCC1(C)C(C(=O)OC)CC(OC(C)=O)C(=O)C21 (centres unmarked) [40a] |  |  | 6.9 nM |  | 741 nM | 9.83 and 7.4–9.8 | 0.102 | 105 | 80 |  |  |
| C#CC1(O)CC(c2ccccc2)CC2C1CCC1(C)C(C(=O)OC)CC(OC(C)=O)C(=O)C21 (centres unmarked) [40b] | 104% |  | 4.4 nM | 92% | 794 nM | 7.44 and 7.4–9.8 | 0.134 |  |  |  |  |
| COC(=O)C1CC(OC(C)=O)C(=O)C2C3CC(c4ccoc4)CC(O)C3CCC12C (centres unmarked) [41a] |  | 5.01 nM | 5.1 nM |  | 123 nM | 1.33 | 0.754 | 102 | 85 |  |  |
| COC(=O)C1CC(OC(C)=O)C(=O)C2C3CC(c4ccoc4)CC(O)C3CCC12C (centres unmarked) [41b] | 103% | 0.363 nM | 0.4 nM | 86% | 14.1 nM | 2.06 | 0.486 |  |  |  |  |
| COC(=O)[C@@H]1C[C@H](OC(C)=O)C(=O)[C@@H]2[C@H]3C[C@@H](c4ccoc4)CC(=O)[C@@H]3CC[C@]21C [compound 1, O6C-20-nor-SalA] | 96% |  |  | 108% |  | 0.34 |  |  |  |  |  |
| COC(=O)[C@@H]1C[C@H](OC(C)=O)C(=O)[C@@H]2[C@H]3C[C@H](c4ccoc4)CC(=O)[C@@H]3CC[C@]21C [compound 18] | 91% |  |  | 91% |  | 0.23 |  |  |  |  |  |
| COC(=O)[C@@H]1C[C@H](OC(C)=O)C(=O)[C@@H]2[C@H]3C[C@@H](c4ccsc4)CC(=O)[C@@H]3CC[C@]21C [compound 19] | 101% | 1.48 nM |  | 105% | 72.4 nM | 1.11 | 0.898 |  |  |  |  |
| COC(=O)[C@@H]1C[C@H](OC(C)=O)C(=O)[C@@H]2[C@H]3C[C@@H](c4cccnc4)CC(=O)[C@@H]3CC[C@]21C [compound 20] | 105% | 468 nM |  | 88% | 2040 nM | 0.17 | 5.896 |  |  |  |  |
| COC(=O)[C@@H]1C[C@H](OC(C)=O)C(=O)[C@@H]2[C@H]3C[C@@H](c4ccncc4)CC(=O)[C@@H]3CC[C@]21C [compound 21] | 93% | 302 nM |  | 94% | 3310 nM | 0.23 | 4.409 |  |  |  |  |
| COC(=O)[C@@H]1C[C@H](OC(C)=O)C(=O)[C@@H]2[C@H]3C[C@@H](c4ccnc(OC)c4)CC(=O)[C@@H]3CC[C@]21C [compound 23] |  |  | 3390 nM |  |  |  |  |  |  |  |  |
| COC(=O)[C@@H]1C[C@H](OC(C)=O)C(=O)[C@@H]2[C@H]3C[C@@H](c4ccnc5ccccc45)CC(=O)[C@@H]3CC[C@]21C [compound 25] | 95% | 631 nM |  |  |  |  |  |  |  |  |  |
| COC(=O)[C@@H]1C[C@H](OC(C)=O)C(=O)[C@@H]2[C@H]3C[C@@H](c4coc5ccccc45)CC(=O)[C@@H]3CC[C@]21C [compound 26] | 104% | 41.7 nM |  | 100% | 2340 nM | 1.87 | 0.536 |  |  |  |  |
| COC(=O)[C@@H]1C[C@H](OC(C)=O)C(=O)[C@@H]2[C@H]3C[C@@H](c4c[nH]c5ccccc45)CC(=O)[C@@H]3CC[C@]21C [compound 27] | 92% | 331 nM |  | 14% | 2040 nM | 3.96 | 0.252 |  |  |  |  |
| COC(=O)[C@@H]1C[C@H](OC(C)=O)C(=O)[C@@H]2[C@H]3C[C@@H](c4ccc(C)cc4)CC(=O)[C@@H]3CC[C@]21C [compound 28] | 93% | 398 nM |  | 14% | 1860 nM | 3.88 | 0.258 |  |  |  |  |
| COC(=O)[C@@H]1C[C@H](OC(C)=O)C(=O)[C@@H]2[C@H]3C[C@@H](c4ccc(Cl)cc4)CC(=O)[C@@H]3CC[C@]21C [compound 29] | 103% | 67.6 nM |  | 51% | 851 nM | 3.16 | 0.316 |  |  |  |  |
| COC(=O)[C@@H]1C[C@H](OC(C)=O)C(=O)[C@@H]2[C@H]3C[C@@H](c4cccc(C)c4)CC(=O)[C@@H]3CC[C@]21C [compound 30] | 105% | 14.5 nM | 15 nM | 115% | 794 nM | 1.26 | 0.797 |  |  |  |  |
| COC(=O)[C@@H]1C[C@H](OC(C)=O)C(=O)[C@@H]2[C@H]3C[C@@H](c4cccc(Cl)c4)CC(=O)[C@@H]3CC[C@]21C [compound 31] | 103% | 4.27 nM | 4.2 nM | 123% | 631 nM | 2.50 | 0.399 |  |  |  |  |
| COC(=O)[C@@H]1C[C@H](OC(C)=O)C(=O)[C@@H]2[C@H]3C[C@@H](C4=CCCCC4)CC(=O)[C@@H]3CC[C@]21C [compound 32] |  |  | 0.3 nM |  |  |  |  |  |  | 20 fold |  |
| COC(=O)[C@@H]1C[C@H](OC(C)=O)C(=O)[C@@H]2[C@H]3C[C@@H](Sc4ccccc4)CC(=O)[C@@H]3CC[C@]21C [compound 33] | 92% |  | 96 nM | 131% | 4270 nM | 0.51 | 1.946 |  |  |  |  |
| COC(=O)[C@@H]1C[C@H](OC(C)=O)C(=O)[C@@H]2[C@H]3C[C@@H](c4ccccc4)CC(=O)N[C@@H]3CC[C@]21C [compound 35] | 107% |  | 46 nM | 67% | 1820 nM | 5.48 | 0.182 |  |  |  |  |
| COC(=O)C1CC(OC(C)=O)C(=O)C2C3CC(c4ccoc4)CC(=NO)C3CCC12C (centres unmarked) [compound 36] | 105% | 0.347 nM | 0.4 nM | 83% | 12.9 nM | 2.66 | 0.375 |  |  |  |  |
| COC(=O)C1CC(OC(C)=O)C(=O)C2C3CC(c4ccccc4)CC(=NO)C3CCC12C (centres unmarked) [compound 37] | 105% | 0.417 nM | 0.4 nM | 80% | 42.7 nM | 8.60 and 7.4–9.8 | 0.116 |  |  |  | high selectivity for KOR over MOR was also preserved |
| CON=C1CC(c2ccccc2)CC2C1CCC1(C)C(C(=O)OC)CC(OC(C)=O)C(=O)C21 (centres unmarked) [compound 38] | 100% | 2.95 nM |  | 98% | 245 nM | 2.28 | 0.439 |  |  |  |  |
| COC(=O)C1CC(OC(C)=O)C(=O)C2C3CC(c4ccccc4)CC(=NOC(C)=O)C3CCC12C (centres unmarked) [compound 39] | 105% | 1.26 nM |  | 83% | 97.7 nM | 5.43 | 0.184 |  |  |  |  |
